For data set [1], the species on record is Homo sapiens. Nature of the data set: Selectivity ratio of Ki(app) for JAK1 (unknown origin) to Ki(app) for human EGFR catalytic domain (668 to 1210 residues) T790M/L858R double mutant.
Data set [2] has as its target T1, Epidermal growth factor receptor (Homo sapiens, UniProt P00533, L858R/T790M). The data set can be described thus: Inhibition of human EGFR catalytic domain (668 to 1210 residues) T790M/L858R double mutant using Fl-EEPLYWSFPAKKK-CONH2 peptide substrate preincubated for 30 mins followed by substrate addition measured after 30 mins by Caliper Mobility Shift Assay. Type of data set: protein assay. The following applies: read-out: Ki(app).

The species named for data set [3] is Homo sapiens. The data set can be described thus: Selectivity ratio of Ki(app) for human N-terminal GST-tagged EGFR catalytic domain (669 to 1210 residues) expressed in baculovirus expression system to Ki(app) for human EGFR catalytic domain (668 to 1210 residues) T790M/L858R double mutant.
For data set [4], the species on record is Homo sapiens. The data set can be described thus: Selectivity ratio of Ki(app) for JAK2 (unknown origin) to Ki(app) for human EGFR catalytic domain (668 to 1210 residues) T790M/L858R double mutant.
Data set [5] addresses Epidermal growth factor receptor (Homo sapiens, UniProt P00533). The data set can be described thus: Inhibition of human N-terminal GST-tagged EGFR catalytic domain (669 to 1210 residues) expressed in baculovirus expression system using Fl-EEPLYWSFPAKKK-CONH2 peptide substrate preincubated for 30 mins followed by substrate addition measured after 30 mins by Caliper Mobility Shift Assay. The following applies: read-out: Ki(app).

A short description of data set [6]: Lipophilicity, log D of compound at pH 7.4. Type of data set: physicochemical. The following applies: buffer.
Data set [7] concerns the target T2, Tyrosine-protein kinase JAK2 (Homo sapiens, UniProt O60674). The data set can be described thus: Inhibition of JAK2 (unknown origin). The following applies: read-out: Ki(app).
Data set [8] has as its target Tyrosine-protein kinase JAK1 (Homo sapiens, UniProt P23458). Nature of the data set: Inhibition of JAK1 (unknown origin). The following applies: read-out: Ki(app).
Data set [9] deals with T1, Epidermal growth factor receptor. The data set can be described thus: Inhibition of EGFR T790M/L858R double mutant phosphorylation in human H1975 cells preincubated for 1 hr followed by EGF stimulation for 8 mins by electrochemiluminescent immunoassay. It is filed as cell-based.
Data set [10] concerns the target T2, Tyrosine-protein kinase JAK2. The data set can be described thus: Inhibition of JAK2 (unknown origin) at 1 uM.
For data set [11], the species on record is Homo sapiens. The data set can be described thus: Selectivity ratio of Ki(app) for JAK1 (unknown origin) to Ki(app) for JAK2 (unknown origin).
Data set [12] can be described thus: Kinetic solubility of compound in pH7.4 DMSO/phosphate buffered saline after 24 hrs by chemiluminescent nitrogen detection method. It is filed as physicochemical. The following applies: pH 7.4, read-out: Kinetic_solubility.
Data set [13] concerns H1975. The data set can be described thus: Ratio of EC50 for wild type EGFR phosphorylation in human H292 cells to EC50 for EGFR T790M/L858R double mutant phosphorylation in human H1975 cells. Type of data set: cell-based.

Molecules are shown by their SMILES. Values after ≈ are worked out from the molar mass of the structure shown. Active and inactive are the calls of the source. The calls are words filed in the database; no cut-off is given here.

For orientation: logD means the decadic logarithm of the distribution of all forms, ionised or not, between an organic phase and buffer at a given pH. A higher logD goes with a more lipophilic compound. Broadly, the EC50 is the midpoint of the concentration-response curve. A low value points to greater potency.

Sequence of Epidermal growth factor receptor (Homo sapiens, UniProt P00533) (P00533 whole entry, the tested form may be a part): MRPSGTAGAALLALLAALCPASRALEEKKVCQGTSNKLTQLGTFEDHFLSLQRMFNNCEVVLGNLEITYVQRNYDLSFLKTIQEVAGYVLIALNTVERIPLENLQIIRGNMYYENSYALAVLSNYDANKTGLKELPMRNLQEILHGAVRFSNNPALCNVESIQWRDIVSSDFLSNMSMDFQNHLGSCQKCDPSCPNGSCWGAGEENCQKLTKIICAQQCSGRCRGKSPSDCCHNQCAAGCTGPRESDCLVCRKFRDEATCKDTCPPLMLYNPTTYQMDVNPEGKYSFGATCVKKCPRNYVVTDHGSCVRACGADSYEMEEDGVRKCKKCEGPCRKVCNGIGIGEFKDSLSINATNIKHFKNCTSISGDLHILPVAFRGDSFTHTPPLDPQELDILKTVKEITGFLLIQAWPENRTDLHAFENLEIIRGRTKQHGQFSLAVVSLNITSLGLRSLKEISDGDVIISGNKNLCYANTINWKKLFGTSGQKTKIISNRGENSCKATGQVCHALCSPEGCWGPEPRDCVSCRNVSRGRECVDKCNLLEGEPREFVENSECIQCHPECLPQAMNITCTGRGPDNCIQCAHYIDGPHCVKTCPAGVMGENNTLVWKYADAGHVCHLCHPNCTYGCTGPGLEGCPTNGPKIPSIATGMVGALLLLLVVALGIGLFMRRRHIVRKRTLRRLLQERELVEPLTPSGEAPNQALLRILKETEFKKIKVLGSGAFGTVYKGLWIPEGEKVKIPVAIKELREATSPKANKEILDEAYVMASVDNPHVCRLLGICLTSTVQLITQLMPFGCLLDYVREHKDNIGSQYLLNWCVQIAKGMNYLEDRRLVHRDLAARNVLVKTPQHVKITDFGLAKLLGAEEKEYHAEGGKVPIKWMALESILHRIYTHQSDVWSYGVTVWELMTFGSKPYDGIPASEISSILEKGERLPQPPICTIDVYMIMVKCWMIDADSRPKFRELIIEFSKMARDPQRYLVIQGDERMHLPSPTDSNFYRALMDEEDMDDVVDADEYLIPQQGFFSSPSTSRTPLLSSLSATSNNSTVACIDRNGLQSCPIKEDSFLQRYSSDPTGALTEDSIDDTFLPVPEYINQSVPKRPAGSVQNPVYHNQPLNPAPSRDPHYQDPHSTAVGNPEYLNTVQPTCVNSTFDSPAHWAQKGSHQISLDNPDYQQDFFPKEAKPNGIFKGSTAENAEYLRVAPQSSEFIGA
T2 sequence (O60674 whole entry): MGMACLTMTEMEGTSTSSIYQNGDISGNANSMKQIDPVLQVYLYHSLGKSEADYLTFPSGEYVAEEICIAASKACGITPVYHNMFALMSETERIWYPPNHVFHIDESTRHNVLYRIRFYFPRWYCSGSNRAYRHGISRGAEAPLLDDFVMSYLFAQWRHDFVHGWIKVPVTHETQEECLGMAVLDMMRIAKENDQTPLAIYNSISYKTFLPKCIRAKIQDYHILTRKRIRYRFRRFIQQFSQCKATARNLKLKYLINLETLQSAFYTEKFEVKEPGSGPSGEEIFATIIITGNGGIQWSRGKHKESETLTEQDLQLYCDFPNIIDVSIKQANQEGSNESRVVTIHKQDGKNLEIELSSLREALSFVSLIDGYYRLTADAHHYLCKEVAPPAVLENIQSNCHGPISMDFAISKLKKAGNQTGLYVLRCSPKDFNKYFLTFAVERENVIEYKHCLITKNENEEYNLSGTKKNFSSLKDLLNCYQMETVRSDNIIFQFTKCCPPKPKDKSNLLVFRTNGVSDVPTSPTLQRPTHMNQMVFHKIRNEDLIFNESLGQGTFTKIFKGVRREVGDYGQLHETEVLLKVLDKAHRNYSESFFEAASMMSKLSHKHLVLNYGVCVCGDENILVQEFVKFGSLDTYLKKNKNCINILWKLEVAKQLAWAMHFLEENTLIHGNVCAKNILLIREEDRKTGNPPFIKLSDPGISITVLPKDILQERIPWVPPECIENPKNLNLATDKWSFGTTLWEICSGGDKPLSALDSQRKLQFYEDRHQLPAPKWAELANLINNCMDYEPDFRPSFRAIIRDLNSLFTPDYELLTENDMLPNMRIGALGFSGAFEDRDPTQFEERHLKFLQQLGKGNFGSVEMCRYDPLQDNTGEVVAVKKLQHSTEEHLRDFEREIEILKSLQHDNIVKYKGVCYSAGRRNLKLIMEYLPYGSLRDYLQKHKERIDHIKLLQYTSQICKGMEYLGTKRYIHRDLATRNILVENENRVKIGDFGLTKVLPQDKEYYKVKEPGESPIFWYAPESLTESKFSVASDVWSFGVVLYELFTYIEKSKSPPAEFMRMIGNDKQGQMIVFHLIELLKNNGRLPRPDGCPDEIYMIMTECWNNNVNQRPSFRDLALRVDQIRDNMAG
Sequence of Tyrosine-protein kinase JAK1 (P23458 whole entry): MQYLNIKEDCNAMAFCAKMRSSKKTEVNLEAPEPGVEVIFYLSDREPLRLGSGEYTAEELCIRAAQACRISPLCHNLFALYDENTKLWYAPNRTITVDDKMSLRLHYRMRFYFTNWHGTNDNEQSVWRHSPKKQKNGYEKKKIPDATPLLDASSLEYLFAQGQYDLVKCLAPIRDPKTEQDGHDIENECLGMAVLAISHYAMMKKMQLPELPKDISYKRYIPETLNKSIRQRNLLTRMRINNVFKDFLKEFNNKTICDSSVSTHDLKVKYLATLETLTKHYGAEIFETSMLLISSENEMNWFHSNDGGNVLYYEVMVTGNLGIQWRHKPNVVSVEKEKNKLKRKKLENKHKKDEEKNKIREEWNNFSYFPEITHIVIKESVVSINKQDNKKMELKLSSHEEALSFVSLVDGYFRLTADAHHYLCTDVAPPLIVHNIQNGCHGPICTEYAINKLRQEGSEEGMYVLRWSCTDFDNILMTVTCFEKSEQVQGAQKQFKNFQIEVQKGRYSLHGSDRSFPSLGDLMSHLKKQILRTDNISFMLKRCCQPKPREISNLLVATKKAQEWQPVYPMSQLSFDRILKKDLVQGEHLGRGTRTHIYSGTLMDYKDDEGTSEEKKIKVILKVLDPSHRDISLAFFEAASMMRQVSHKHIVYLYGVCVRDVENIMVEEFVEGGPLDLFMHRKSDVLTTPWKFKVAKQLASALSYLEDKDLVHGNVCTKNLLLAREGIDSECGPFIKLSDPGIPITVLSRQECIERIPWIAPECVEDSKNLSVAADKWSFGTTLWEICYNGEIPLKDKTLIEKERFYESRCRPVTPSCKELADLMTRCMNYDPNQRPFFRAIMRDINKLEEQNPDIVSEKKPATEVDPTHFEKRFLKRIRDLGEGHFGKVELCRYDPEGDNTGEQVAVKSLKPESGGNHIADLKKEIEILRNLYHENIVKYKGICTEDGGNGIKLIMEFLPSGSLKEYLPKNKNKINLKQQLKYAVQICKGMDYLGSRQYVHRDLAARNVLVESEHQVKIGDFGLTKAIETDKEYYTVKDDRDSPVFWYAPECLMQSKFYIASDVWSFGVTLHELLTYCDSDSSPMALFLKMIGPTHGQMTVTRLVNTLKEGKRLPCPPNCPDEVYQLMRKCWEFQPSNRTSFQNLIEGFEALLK

Regarding `COc1ccccc1Nc1cc[nH]c(=O)c1-c1nc2c(C(C)C)ccc(C)c2[nH]1`, the figures for the Ratio Ki(app) in data set [1], in [3] and in data set [4] were 6, 27 and 0.3, respectively. Moreover, the Ki in [2] came out at 88 nM.

With `COc1ccccc1Nc1cc[nH]c(=O)c1C(=O)Nc1ccc(N2CCN(C)CC2)cc1`, the Ki in [5] worked out at 1090 nM; in data set [7] it was 9 nM; in data set [8] it was 172 nM; in [2] it was 19 nM. Moreover, the logD in [6] was determined as 3.5. In addition, the Ratio Ki(app) in data set [1] was determined as 9; in data set [11] it was 10; in data set [3], 58; in data set [4], 0.5. Further, the response in data set [9] was half-maximal at 1090 nM (EC50). The inhibition result in data set [10] is “Active”. For the same molecule, the solubility kinetic at 24 h in data set [12] came out at 4 µM (≈ 1.73 µg/mL). In addition, in data set [13], the Ratio EC50 came to 5.

`CN1CCN(c2ccc(NC(=O)c3c(NC[C@@H](O)c4cccc(Cl)c4)cc[nH]c3=O)cc2)CC1`: the figures for the Ki in [5] and in [2] were 18 nM and 65 nM, respectively. Moreover, in data set [9], the EC50 came out at 412 nM. Further, the solubility kinetic at 24 h in data set [12] was 11 µM (≈ 5.3 µg/mL). Moreover, in data set [3], the Ratio Ki(app) was below 1.

On to `COc1ccccc1Nc1cc[nH]c(=O)c1C(=O)Nc1ccc(CN2CCN(C)CC2)cc1`, for which the results for the Ki in [5] and in data set [2] were 1200 nM and 51 nM, respectively. Besides, the Ratio Ki(app) in data set [3] was 22.

For the molecule `COc1ccccc1Nc1cc[nH]c(=O)c1C(=O)Nc1ccc(C2CCN(C)CC2)cc1`, the Ki turned out to be 634 nM in [5] and 15 nM in data set [2]. Also, the logD in data set [6] came out at 2.7. The EC50 in [9] worked out at 433 nM. In [12], the solubility kinetic at 24 h is 61 µM (≈ 26.4 µg/mL). Also, in [3], the Ratio Ki(app) is 29. Moreover, the Ratio EC50 in [13] is above 23.

For `COc1ccccc1Nc1cc[nH]c(=O)c1C(=O)Nc1ccc(N2CCN(C)CC2)c(C)c1`, the Ratio Ki(app) stood at 42 in [1], 16 in data set [3] and 0.9 in data set [4]. The Ki in data set [2] is 26 nM.

Regarding `CN1CCN(c2ccc(NC(=O)c3c(Nc4ccccn4)cc[nH]c3=O)cc2)CC1`, the Ki in data set [5] was above 2540 nM; in data set [2], 108 nM. Further, the Ratio Ki(app) in data set [3] was above 24.

With `CN1CCN(c2ccc(NC(=O)c3c(Nc4ccncc4N)cc[nH]c3=O)cc2)CC1`, the Ki is above 1230 nM in [5] and 145 nM in [2]. Further, in [3], the Ratio Ki(app) is above 8.

For the molecule `CN1CCN(c2ccc(NC(=O)c3c(Nc4ccncn4)cc[nH]c3=O)cc2)CC1`, the Ki is above 2540 nM in data set [5] and 95 nM in data set [2]. In [3], the Ratio Ki(app) is above 27.

As for `COc1ccccc1Nc1cc[nH]c(=O)c1C(=O)Nc1ccc(N2CCN(C)CC2)cn1`, the Ki in [5] was above 2500 nM; in data set [2] it was above 2060 nM. Besides, the Ratio Ki(app) in data set [3] worked out at 1.

Regarding `COc1ccccc1Nc1cc[nH]c(=O)c1C(=O)Nc1ccc(N2CCC(C)CC2)cc1`, the figures for the Ki in data set [5] and in [2] were above 2500 nM and 625 nM, respectively. For the same molecule, the Ratio Ki(app) in [3] was above 4.1.

On to `CN1CCN(c2ccc(NC(=O)c3c(Nc4ccc(Cl)cc4)cc[nH]c3=O)cc2)CC1`, for which the Ki in [5] is above 2540 nM; in [2] it was 629 nM. Moreover, the Ratio Ki(app) in [3] is above 4.

`CCc1cc(NC(=O)c2c(Nc3ccccc3OC)cc[nH]c2=O)ccc1N1CCN(C)CC1`: the figures for the Ratio Ki(app) in data set [1], in [3] and in data set [4] were 104, above 80 and 4, respectively. Besides, the Ki in data set [2] turned out to be 31 nM.

In the case of `CN1CCN(c2ccc(NC(=O)c3c(Nc4ccnc(N)n4)cc[nH]c3=O)cc2)CC1`, the Ki was found to be 850 nM in [5] and 4 nM in data set [2]. The Ratio Ki(app) in [1] is 3; in data set [3], 213; in data set [4], 2. Further, in data set [10], the inhibition entry is “Active”.

Take `CN1CCN(c2ccc(NC(=O)c3c(NCc4ccccc4)cc[nH]c3=O)cc2)CC1`: the Ki in [5] amounted to 349 nM; in data set [2], 350 nM. Also, the Ratio Ki(app) in data set [3] stood at 1.

`COc1ccccc1Nc1cc[nH]c(=O)c1-c1nc2c(C(C)C)cccc2[nH]1`: the Ki in data set [5] was 2400 nM; in data set [2], 58 nM. In addition, the Ratio Ki(app) in [1] came out at 2; in data set [3] it was 42; in data set [4], 0.2.

On to `CN1CCN(c2ccc(NC(=O)c3c(NCCc4ccccc4)cc[nH]c3=O)cc2)CC1`, for which the Ki in [5] came to 49 nM; in data set [2], 117 nM. Moreover, the Ratio Ki(app) in [3] is below 1.

On to `CN1CCN(c2ccc(NC(=O)c3c(Nc4ccccc4)cc[nH]c3=O)cc2)CC1`, for which the figures for the Ki in data set [5] and in data set [2] were above 2540 nM and 144 nM, respectively. Besides, in data set [3], the Ratio Ki(app) was above 18.

Take `CN1CCN(c2ccc(NC(=O)c3c(NCCc4cccc(Cl)c4)cc[nH]c3=O)cc2)CC1`: the Ki in data set [5] was 43 nM; in data set [2], 66 nM. Besides, in data set [3], the Ratio Ki(app) was 1.

As for `Cc1ccccc1Nc1cc[nH]c(=O)c1C(=O)Nc1ccc(N2CCN(C)CC2)cc1`, the results for the Ki in data set [5] and in data set [2] were 2340 nM and 61 nM, respectively. Further, the Ratio Ki(app) in [3] is 38.

Take `COc1ccccc1Nc1cc[nH]c(=O)c1C(=O)Nc1ccc(N2CCN(C)CC2)nc1`: the values for the Ki in [5] and in data set [2] were above 2500 nM and 78 nM, respectively. This molecule also displayed a logD in [6] of 2.6. Besides, the solubility kinetic at 24 h in data set [12] stood at 65 µM (≈ 28.2 µg/mL). Besides, in data set [3], the Ratio Ki(app) was above 33.

As for `COc1ccccc1N(C)c1cc[nH]c(=O)c1C(=O)Nc1ccc(N2CCN(C)CC2)cc1`, the Ki in [5] was above 2540 nM; in [2], above 2060 nM. In addition, the Ratio Ki(app) in [3] amounted to 1.

As for `CN1CCN(c2ccc(NC(=O)c3c(Nc4ccccc4Cl)cc[nH]c3=O)cc2)CC1`, the Ki in [5] turned out to be 1480 nM; in [2], 82 nM. The Ratio Ki(app) in data set [3] came out at 18.

As to `CN1CCN(c2ccc(NC(=O)c3c(NCCc4ccc(Cl)cc4)cc[nH]c3=O)cc2)CC1`, the results for the Ki in [5] and in [2] were 37 nM and 262 nM, respectively. In addition, the Ratio Ki(app) in data set [3] is below 1.

`CN1CCN(c2ccc(NC(=O)c3c(Nc4cccc(Cl)c4)cc[nH]c3=O)cc2)CC1`: the Ki in [5] was found to be 2520 nM; in data set [2] it was 155 nM. In addition, the Ratio Ki(app) in data set [3] was determined as 16.

With `CN1CCN(c2ccc(NC(=O)c3c(N)cc[nH]c3=O)cc2)CC1`, the Ki is above 2540 nM in data set [5] and 346 nM in data set [2]. The Ratio Ki(app) in [3] was above 7.

As for `O=C(Nc1ccccc1)c1c(NCCc2cccc(Cl)c2)cc[nH]c1=O`, the Ki in [5] was found to be 1210 nM; in data set [2] it was 330 nM. Further, the Ratio Ki(app) in data set [3] came out at 2.

With `COc1ccccc1Nc1cc[nH]c(=O)c1C(=O)Nc1ccc(N2CCCN(C)CC2)cc1`, the Ki was determined as 705 nM in [5] and 12 nM in data set [2]. In addition, in [3], the Ratio Ki(app) stood at 57.

As for `CN(C)c1ccc(NC(=O)c2c(NCCc3cccc(Cl)c3)cc[nH]c2=O)cc1`, the Ki was 757 nM in data set [5] and 290 nM in data set [2]. Also, the Ratio Ki(app) in [3] was 1.

Turning to `COc1ccccc1Nc1cc[nH]c(=O)c1C(N)=O`, the Ki in data set [5] is above 2500 nM; in data set [2] it was above 688 nM. The Ratio Ki(app) in [3] was above 3.6.

Turning to `COc1ccccc1Nc1cc[nH]c(=O)c1C(=O)Nc1ccc(N2CCS(=O)(=O)CC2)cc1`, the Ki in [5] was above 1300 nM; in data set [2] it was 37 nM. Besides, the Ratio Ki(app) in data set [3] was above 34.

For the origin of these results see ChEMBL document CHEMBL3779874, “Pyridones as Highly Selective, Noncovalent Inhibitors of T790M Double Mutants of EGFR” (ACS Med Chem Lett, 2016).
